The values below are quoted from earlier work in US20120328543A1, “USE OF A CATIONIC, ADVANTAGEOUSLY AMPHOTERIC, SURFACTANT FOR THE PREPARATION OF AN ANTIFUNGAL SOLUTION THAT CAN BE APPLIED TO THE NAIL” (priority 2009, published 2012).

Assay in data set [1]: not given
The source holds these as a separate data set.

`CN(C/C=C/C#CC(C)(C)C)Cc1cccc2ccccc12.Cl` [Terbinafine HCl, terbinafine hydrochloride]: the pKa was 7.10. For the same compound, in data set [1], the solubility in water was 5.32 µg/mL.
